Each structure is given as a SMILES string. Square brackets hold non-standard residues; d marks the D form. Peptide text beside a SMILES is read from it.

In this test the target is T1, fMet-Leu-Phe receptor (Homo sapiens, UniProt P21462).
T1 sequence (P21462 whole entry): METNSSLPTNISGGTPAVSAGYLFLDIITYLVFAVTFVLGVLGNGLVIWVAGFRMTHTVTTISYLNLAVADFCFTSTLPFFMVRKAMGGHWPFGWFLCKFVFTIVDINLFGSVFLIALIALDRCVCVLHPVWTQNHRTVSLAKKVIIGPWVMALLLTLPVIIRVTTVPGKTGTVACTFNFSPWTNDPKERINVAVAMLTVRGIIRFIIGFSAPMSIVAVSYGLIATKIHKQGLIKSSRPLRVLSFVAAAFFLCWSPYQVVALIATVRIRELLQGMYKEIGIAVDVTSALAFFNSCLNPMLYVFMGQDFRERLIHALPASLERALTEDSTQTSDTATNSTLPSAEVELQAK
The Ki is a measure of affinity in units of concentration, obtained from inhibition or displacement. In turn, `CSCC[C@H](NC(=O)[C@H](Cc1ccc(O)cc1)NC(=O)[C@H](CCC(=O)O)NC(=O)[C@@H](N)Cc1c[nH]c2ccccc12)C(=O)N[C@H](C(=O)N[C@H](CCSC)C(N)=O)C(C)C` [WEYMVm-NH2] (H-WEYMV[dM]-NH2) came in with a Ki of 323 nM.

Regarding `CSCC[C@H](NC(=O)[C@@H](N)Cc1ccc(O)cc1)C(=O)N[C@H](C(=O)N[C@H](CCSC)C(N)=O)C(C)C` [YMVm-NH2] (H-YMV[dM]-NH2), the affinity corresponds to a Ki of 567 nM.

`CSCC[C@H](NC(=O)[C@H](CC(=O)O)NC(=O)[C@H](CCCCN)NC(=O)[C@@H](N)Cc1c[nH]c2ccccc12)C(=O)N[C@H](C(=O)N[C@H](CCSC)C(N)=O)C(C)C` [WKDMVm-NH2] (H-WKDMV[dM]-NH2) returned an inhibitory constant (Ki) of 1300 nM.

In turn, `CSCC[C@H](NC(=O)[C@H](Cc1c[nH]c2ccccc12)NC(=O)[C@H](CCCCN)NC(=O)[C@@H](N)Cc1c[nH]c2ccccc12)C(=O)N[C@H](C(=O)N[C@H](CCSC)C(N)=O)C(C)C` [WKWMVm-NH2] (H-WKWMV[dM]-NH2) yielded an inhibition constant (Ki) of 19 nM.

In the case of `CSCC[C@H](NC(=O)[C@H](Cc1ccc(O)cc1)NC(=O)[C@H](CCCNC(=N)N)NC(=O)[C@@H](N)Cc1c[nH]c2ccccc12)C(=O)N[C@H](C(=O)N[C@H](CCSC)C(N)=O)C(C)C` [WRYMVm-NH2] (H-WRYMV[dM]-NH2), the inhibition constant (Ki) stood at 55 nM.

On to `CSCC[C@H](NC(=O)[C@H](Cc1ccccc1)NC(=O)[C@H](CCCCN)NC(=O)[C@@H](N)Cc1c[nH]c2ccccc12)C(=O)N[C@H](C(=O)N[C@H](CCSC)C(N)=O)C(C)C` [WKFMVm-NH2] (H-WKFMV[dM]-NH2), for which the inhibitory constant (Ki) was determined as 18 nM.

`CSCC[C@H](NC(=O)[C@H](Cc1ccc(O)cc1)NC(=O)[C@H](CC(=O)O)NC(=O)[C@@H](N)Cc1c[nH]c2ccccc12)C(=O)N[C@H](C(=O)N[C@H](CCSC)C(N)=O)C(C)C` [WDYMVm-NH2] (H-WDYMV[dM]-NH2) showed an inhibitory constant (Ki) of 99 nM.

`CSCC[C@H](NC(=O)[C@H](Cc1ccc(O)cc1)NC(=O)[C@H](CCCCN)NC(=O)[C@@H](N)Cc1c[nH]c2ccccc12)C(=O)N[C@@H](Cc1ccccc1)C(=O)N[C@H](CCSC)C(N)=O` [WKYM(F/W)m-NH2] showed a Ki of 57 nM.

As for `CSCC[C@H](NC(=O)[C@H](CCC(=O)O)NC(=O)[C@H](CCCCN)NC(=O)[C@@H](N)Cc1c[nH]c2ccccc12)C(=O)N[C@H](C(=O)N[C@H](CCSC)C(N)=O)C(C)C` [WKEMVm-NH2] (H-WKEMV[dM]-NH2), the inhibition constant (Ki) came out at 1300 nM.

Turning to `CSCC[C@H](NC(=O)[C@H](Cc1ccc(O)cc1)NC(=O)[C@H](CCCCN)NC(=O)[C@@H](N)Cc1c[nH]c2ccccc12)C(=O)N[C@@H](Cc1ccc(O)cc1)C(=O)N[C@H](CCSC)C(N)=O` [WKYMYm-NH2] (H-WKYMY[dM]-NH2), the inhibition constant Ki was 671 nM.

The compound `CSCC[C@H](NC(=O)[C@H](Cc1ccc(O)cc1)NC(=O)[C@H](Cc1c[nH]cn1)NC(=O)[C@@H](N)Cc1c[nH]c2ccccc12)C(=O)N[C@H](C(=O)N[C@H](CCSC)C(N)=O)C(C)C` [WHYMVm-NH2] (H-WHYMV[dM]-NH2) had a Ki of 32 nM.

`CSCC[C@H](NC(=O)[C@H](Cc1c[nH]cn1)NC(=O)[C@H](CCCCN)NC(=O)[C@@H](N)Cc1c[nH]c2ccccc12)C(=O)N[C@H](C(=O)N[C@H](CCSC)C(N)=O)C(C)C` [WKHMVm-NH2] (H-WKHMV[dM]-NH2): affinity was put at a Ki of 282 nM.

The values above are taken from BindingDB's records for doi:10.1124/mol.64.4.841 (Pohang University of Science and Technology, 2003).
